Data as given in patent US20230295234A1, “ANTIMICROBIAL PEPTIDOMIMETICS” (SPEXIS AG, priority 2020, published 2023).
Peptide text beside a SMILES is read from it.

Tests used:
[1] = system: Klebsiella pneumoniae SSI3010; conditions: SSI3010
Summary of the method: (§1)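 Peptides were made up as 1 mg/mL stocks in sterile water. Colonies in 0.85% saline were set to 0.5 McFarland, then diluted in cation-adjusted Mueller-Hinton II broth to about 5×10^5 CFU/mL. Inoculum was combined with two-fold serial peptide dilutions in water containing 0.002% (final) polysorbate 80.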

[2] = system: Escherichia coli MCR-1 Af 45; conditions: MCR-1 Af 45
Summary of the method: as §1

[3] = system: Escherichia coli ATCC 25922; conditions: ATCC 25922
Summary of the method: as §1

[4] = system: human red blood cells (hRBC); assay: Hemolysis of human red blood cells; format: cell-based; conditions: red cells of human, 1 h
Summary of the method: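 Percent hemolysis is OD540 of peptide-treated supernatant relative to water-lysed cells. Each peptide was tested at 200 μg/mL against 20% (v/v) washed human erythrocytes. Incubation was 1 h at 37 °C, 300 rpm.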

Compound	Klebsiella pneumoniae SSI3010 MIC [1] [µg/mL]	Escherichia coli MCR-1 Af 45 MIC [2] [µg/mL]	Escherichia coli ATCC 25922 MIC [3] [µg/mL]	Hemolysis at 0.2 g/L [4] [%]
CC[C@H](C)[C@H](NC(=O)[C@@H](NC(=O)[C@@H]1CCCN1C(=O)[C@@H](NC(=O)[C@@H]1CCCN1C(=O)[C@H](CCCCN)NC(=O)[C@@H](N)CCCCN)C(C)C)[C@@H](C)CC)C(=O)N[C@@H](Cc1ccc(O)cc1)C(=O)N[C@H]1CSSC[C@@H](C(=O)N[C@@H](CCN)C(=O)N[C@@H](CCCNC(=N)N)C(=O)N[C@@H](CC2CCOCC2)C(=O)O)NC(=O)[C@H](CCCCN)NC(=O)[C@@H](CCN)NC(=O)[C@H]([C@@H](C)O)NC(=O)[C@H](CCN)NC(=O)[C@H](CCCNC(=N)N)NC(=O)[C@H](CC(N)=O)NC1=O [Example 80] (HELM PEPTIDE1{K.K.P.V.P.I.I.Y.C.N.R.[Dab].T.[NCC[C@@H](N[*:1])C(=O)[*:2]].K.C.[Dab].R.[O=C(O)[C@H](CC1CCOCC1)N[*:1]]}$PEPTIDE1,PEPTIDE1,9:R3-16:R3$$$V2.0)	0.125	0.0625	0.0625	0
CC[C@H](C)[C@H](NC(=O)[C@@H](NC(=O)[C@@H]1CCCN1C(=O)[C@@H](NC(=O)[C@@H]1CCCN1C(=O)[C@H](CCCCN)NC(=O)[C@@H](N)CCCCN)C(C)C)[C@@H](C)CC)C(=O)N[C@@H](Cc1ccc(O)cc1)C(=O)N[C@H]1CSSC[C@@H](C(=O)N[C@@H](CCN)C(=O)N[C@@H](CCCNC(=N)N)C(=O)N[C@H](C(=O)O)C2CC2)NC(=O)[C@H](CCCCN)NC(=O)[C@@H](CCN)NC(=O)[C@H]([C@@H](C)O)NC(=O)[C@H](CCN)NC(=O)[C@H](CCCNC(=N)N)NC(=O)[C@H](CC(N)=O)NC1=O [Example 81] (HELM PEPTIDE1{K.K.P.V.P.I.I.Y.C.N.R.[Dab].T.[NCC[C@@H](N[*:1])C(=O)[*:2]].K.C.[Dab].R.[O=C(O)[C@@H](N[*:1])C1CC1]}$PEPTIDE1,PEPTIDE1,9:R3-16:R3$$$V2.0)	0.125	≤0.03125	≤0.03125	0
CCC(CC)[C@H](NC(=O)[C@H](CCCNC(=N)N)NC(=O)[C@H](CCN)NC(=O)[C@@H]1CSSC[C@H](NC(=O)[C@H](Cc2ccc(O)cc2)NC(=O)[C@@H](NC(=O)[C@@H](NC(=O)[C@@H]2CCCN2C(=O)[C@@H](NC(=O)[C@@H]2CCCN2C(=O)[C@H](CCCCN)NC(=O)[C@@H](N)CCCCN)C(C)C)[C@@H](C)CC)[C@@H](C)CC)C(=O)N[C@@H](CC(N)=O)C(=O)N[C@@H](CCCNC(=N)N)C(=O)N[C@@H](CCN)C(=O)N[C@@H]([C@@H](C)O)C(=O)N[C@H](CCN)C(=O)N[C@@H](CCCCN)C(=O)N1)C(=O)O [Example 82] (HELM PEPTIDE1{K.K.P.V.P.I.I.Y.C.N.R.[Dab].T.[NCC[C@@H](N[*:1])C(=O)[*:2]].K.C.[Dab].R.[CCC(CC)[C@H](N[*:1])C(=O)O]}$PEPTIDE1,PEPTIDE1,9:R3-16:R3$$$V2.0)	0.125	0.0625	0.0625	0
CC[C@H](C)[C@H](NC(=O)[C@@H](NC(=O)[C@@H]1CCCN1C(=O)[C@@H](NC(=O)[C@@H]1CCCN1C(=O)[C@H](CCCCN)NC(=O)[C@@H](N)CCCCN)C(C)C)[C@@H](C)CC)C(=O)N[C@@H](Cc1ccc(O)cc1)C(=O)N[C@H]1CSSC[C@@H](C(=O)N[C@@H](CCN)C(=O)N[C@@H](CCCNC(=N)N)C(=O)N[C@@H](CC(C)(C)C)C(=O)O)NC(=O)[C@H](CCCCN)NC(=O)[C@@H](CCN)NC(=O)[C@H]([C@@H](C)O)NC(=O)[C@H](CCN)NC(=O)[C@H](CCCNC(=N)N)NC(=O)[C@H](CC(N)=O)NC1=O [Example 83] (HELM PEPTIDE1{K.K.P.V.P.I.I.Y.C.N.R.[Dab].T.[NCC[C@@H](N[*:1])C(=O)[*:2]].K.C.[Dab].R.[CC(C)(C)C[C@H](N[*:1])C(=O)O]}$PEPTIDE1,PEPTIDE1,9:R3-16:R3$$$V2.0)	0.25	0.0625	0.0625	0
CC[C@H](C)[C@H](NC(=O)[C@@H](NC(=O)[C@@H]1CCCN1C(=O)[C@@H](NC(=O)[C@@H]1CCCN1C(=O)[C@H](CCCCN)NC(=O)[C@@H](N)CCCCN)C(C)C)[C@@H](C)CC)C(=O)N[C@@H](Cc1ccc(O)cc1)C(=O)N[C@H]1CSSC[C@@H](C(=O)N[C@@H](CCN)C(=O)N[C@@H](CCCNC(=N)N)C(=O)N[C@H](C(=O)O)C(C)(C)C)NC(=O)[C@H](CCCCN)NC(=O)[C@@H](CCN)NC(=O)[C@H]([C@@H](C)O)NC(=O)[C@H](CCN)NC(=O)[C@H](CCCNC(=N)N)NC(=O)[C@H](CC(N)=O)NC1=O [Example 84] (HELM PEPTIDE1{K.K.P.V.P.I.I.Y.C.N.R.[Dab].T.[NCC[C@@H](N[*:1])C(=O)[*:2]].K.C.[Dab].R.[CC(C)(C)[C@H](N[*:1])C(=O)O]}$PEPTIDE1,PEPTIDE1,9:R3-16:R3$$$V2.0)	0.125	0.0625	0.0625	0
CC[C@H](C)[C@H](NC(=O)[C@@H](NC(=O)[C@@H]1CCCN1C(=O)[C@@H](NC(=O)CCNC(=O)[C@H](CCCNC(=N)N)NC(=O)[C@@H](N)CCCCN)C(C)C)[C@@H](C)CC)C(=O)N[C@@H](Cc1ccc(O)cc1)C(=O)N[C@@H]1C(=O)N[C@@H](CC(N)=O)C(=O)N[C@@H](CCCNC(=N)N)C(=O)N[C@@H](CCN)C(=O)N[C@@H]([C@@H](C)O)C(=O)N[C@H](CCN)C(=O)N[C@@H](CCCCN)C(=O)N[C@H](C(=O)N[C@@H](CCN)C(=O)N[C@@H](CCCNC(=N)N)C(=O)N[C@@H](Cc2ccc(O)cc2)C(=O)O)CSSC1(C)C [Example 85, Lys-Arg-betaGly-Val-Pro-Ile-Ile-Tyr-Pen-Asn-Arg-Dab-Thr-^DDab-Lys-Cys-Dab-Arg-Tyr] (HELM PEPTIDE1{K.R.[bAla].V.P.I.I.Y.[Pen].N.R.[Dab].T.[NCC[C@@H](N[*:1])C(=O)[*:2]].K.C.[Dab].R.Y}$PEPTIDE1,PEPTIDE1,9:R3-16:R3$$$V2.0)	0.125	0.0625	0.0625	0
CC[C@H](C)[C@H](NC(=O)[C@@H]1CCCN1C(=O)[C@@H](NC(=O)[C@@H]1CCCN1C(=O)[C@H](CCCNC(=N)N)NC(=O)[C@@H](N)CCCCN)C(C)C)C(=O)N[C@@H](CCCNC(=N)N)C(=O)N[C@@H](Cc1ccc(O)cc1)C(=O)N[C@@H]1C(=O)N[C@@H](CC(N)=O)C(=O)N[C@@H](CCCNC(=N)N)C(=O)N[C@@H](CCN)C(=O)N[C@@H]([C@@H](C)O)C(=O)N[C@H](CCN)C(=O)N[C@@H](CCCCN)C(=O)N[C@H](C(=O)N[C@@H](CCN)C(=O)N[C@@H](CCCNC(=N)N)C(=O)N[C@@H](Cc2ccc(O)cc2)C(=O)O)CSSC1(C)C [Example 86] (HELM PEPTIDE1{K.R.P.V.P.I.R.Y.[Pen].N.R.[Dab].T.[NCC[C@@H](N[*:1])C(=O)[*:2]].K.C.[Dab].R.Y}$PEPTIDE1,PEPTIDE1,9:R3-16:R3$$$V2.0)	0.125	≤0.03125	0.125	0
